Data set [1] is described as follows: Measurement of log P values by HPLC on reversed phase columns (methods [a] pH 2.3, [b] pH 2.7, [c] pH 7.8). Format: physicochemical. The conditions noted are these: for chromatographic logP: reversed phase HPLC columns. An outline of the steps:
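Determined per EEC Directive 79/831 Annex V.A8 by reversed-phase HPLC, 10-95% acetonitrile gradient: [a] pH 2.3, 0.1% phosphoric acid; [b] LC-MS, pH 2.7, 0.1% formic acid; [c] LC-MS, pH 7.8, 0.001 molar ammonium hydrogen carbonate. Calibrated with C3-C16 alkan-2-ones by retention-time interpolation.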

For the next data set, the system named is Meloidogyne incognita. Nature of the data set: Meloidogyne incognita test (MELGIN), gall formation on salad seedlings. Format: in vivo. The conditions noted are these: application rate 20 ppm, after 14 days. Summed up:
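Sand vessels treated with acetone-formulated compound diluted in water, then inoculated with M. incognita eggs and larvae and sown with salad seeds. Root galling assessed after 14 days: 100% = no galls, 0% = galling equal to untreated plants.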

The mark [2] stands for this setting: HPLC on reversed phase column, method [b], pH 2.7.
The mark [3] stands for this setting: method [b], HPLC reversed phase, pH 2.7.
The mark [4] stands for this setting: method [c], HPLC reversed phase, pH 7.8.
Setting [5] is: HPLC reversed phase, method [b] (pH 2.7).

The text below walks through data of US20160075653A1, “NEMATICIDAL N-(PHENYLCYCLOALKYL)CARBOXAMIDES AND N-(PHENYLCYCLOALKYL)THIOCARBOXAMIDES” (BAYER CROPSCIENCE AKTIENGESELLSCHAFT, priority 2013, published 2016).

Where two headings read alike, the source gives them in different places.

Regarding `O=C(N[C@@H]1CC[C@@H]1c1cccc(F)c1C(F)(F)F)c1cccnc1C(F)(F)F` (relative stereo) [Compound 641], the logP in data set [1] (setting [2]) is 2.97^[b]. Moreover, the “nematicidal activity (percentage of gall formation; 100% = no galls)” value with Meloidogyne incognita was determined as 100%.

`O=C(N[C@@H]1CC[C@H]1c1cccc(F)c1C(F)(F)F)c1cccnc1C(F)(F)F` (relative stereo) [Compound 642]: in data set [1] (setting [2]), the logP was 3.15^[b]. Also, the “nematicidal activity (percentage of gall formation; 100% = no galls)” value in the data set with Meloidogyne incognita is 90%.

For `O=C(N[C@@H]1CC[C@@H]1c1cccc(F)c1C(F)(F)F)c1nccnc1Cl` (relative stereo) [Compound 645], in data set [1] (setting [2]), the logP is 2.78^[b]. Also, the “nematicidal activity (percentage of gall formation; 100% = no galls)” value in the data set with Meloidogyne incognita is listed as 100%.

`O=C(N[C@@H]1CC[C@@H]1c1cccc(F)c1C(F)(F)F)c1cccnc1Cl` (relative stereo) [Compound 647]: the logP in data set [1] (setting [2]) is 2.66^[b]. Further, the “nematicidal activity (percentage of gall formation; 100% = no galls)” value in the data set with Meloidogyne incognita was found to be 100%.

With `O=C(N[C@@H]1C[C@@H]1c1ccc(Cl)cc1Cl)c1ncccc1Cl` (relative stereo) [Compound 649], the logP in data set [1] (setting [2]) is 2.93^[b]; in data set [1] (HPLC on reversed phase column, method [c], pH 7.8), 2.91^[c];. In the data set on Meloidogyne incognita, the “nematicidal activity (percentage of gall formation; 100% = no galls)” value was determined as 100%.

As for `O=C(N[C@H]1CCC1c1c(F)cccc1F)c1cccnc1C(F)(F)F` (stereo in doubt) [Compound 236, cis-N-[2-(2,6-difluorophenyl)cyclobutyl]-2-(trifluoromethyl)nicotinamide], the chromatographic logP in data set [1] (HPLC-MS, method letter not given, read-out: log P) came out at 2.6; in data set [1] (pH 2.7, method [b], HPLC reversed phase, pH 2.7, read-out: logP), 2.6. For the same compound, the “nematicidal activity (percentage of gall formation; 100% = no galls)” value in the data set on Meloidogyne incognita is reported as 100%.

For the compound `Cn1cc(C(=O)NC2CC2c2ccc(Cl)cc2)c(C(F)(F)F)n1` (stereo not shown) [Compound 11], in data set [1] (HPLC on reversed phase columns, method [b], pH 2.7), the logP was 3.43^[b]. Also, in the data set with Meloidogyne incognita, the “nematicidal activity (percentage of gall formation; 100% = no galls)” value is given as 90%.

For `O=C(NC1CC1c1ccc(Cl)cc1Cl)c1sccc1I` (stereo not shown) [Compound 212], the logP in data set [1] (setting [3]) is 4.10^[b]; in data set [1] (setting [4]), 4.04^[c];. Further, the “nematicidal activity (percentage of gall formation; 100% = no galls)” value in the data set on Meloidogyne incognita is recorded as 100%.

As to `O=C(NC1CC1c1ccc(Cl)cc1Cl)c1sccc1Cl` (stereo not shown) [Compound 213], the logP in data set [1] (setting [3]) is 4.08^[b]; in data set [1] (setting [4]), 4.02^[c];. The “nematicidal activity (percentage of gall formation; 100% = no galls)” value in the data set with Meloidogyne incognita was found to be 100%.

Consider `O=C(NC1CC1c1ccc(Cl)cc1Cl)c1occc1Br` (stereo not shown) [Compound 214], for which the logP was 3.56^[b] in data set [1] (setting [3]) and 3.44^[c]; in data set [1] (setting [4]). Besides, in the data set on Meloidogyne incognita, the “nematicidal activity (percentage of gall formation; 100% = no galls)” value turned out to be 100%.

`O=C(NC1CCC1c1ccccc1C(F)(F)F)c1ncccc1Cl` (stereo not shown) [Compound 215]: the logP in data set [1] (setting [3]) was 3.01^[b]. Further, the “nematicidal activity (percentage of gall formation; 100% = no galls)” value in the data set with Meloidogyne incognita is listed as 90%.

As for `O=C(NC1CCC1c1ccccc1C(F)(F)F)c1ccccc1Br` (stereo not shown) [Compound 216], the logP in data set [1] (setting [3]) is 3.32^[b]. The “nematicidal activity (percentage of gall formation; 100% = no galls)” value in the data set with Meloidogyne incognita was determined as 100%.

On to `O=C(NC1CCC1c1ccccc1C(F)(F)F)c1ccc(Cl)cc1Cl` (stereo not shown) [Compound 217], for which the logP in data set [1] (setting [3]) was 3.81^[b]. In the data set with Meloidogyne incognita, the “nematicidal activity (percentage of gall formation; 100% = no galls)” value was found to be 90%.

Regarding `O=C(NC1CCC1c1c(F)cccc1F)c1ccccc1Br` (stereo not shown) [Compound 227], in data set [1] (setting [3]), the logP is 2.97^[b]. Further, in the data set on Meloidogyne incognita, the “nematicidal activity (percentage of gall formation; 100% = no galls)” value was determined as 100%.

`O=C(NC1CCC1c1ccccc1C(F)(F)F)c1cccnc1C(F)(F)F` (stereo not shown) [Compound 235]: the logP in data set [1] (setting [3]) was 2.94^[b]. For the same compound, the “nematicidal activity (percentage of gall formation; 100% = no galls)” value with Meloidogyne incognita is reported as 100%.

Regarding `O=C(NC1CC1c1ccc(Cl)cc1)c1ccccc1C(F)(F)F` (stereo not shown) [Compound 271], the logP in data set [1] (setting [5]) was 2.98^[b]; in data set [1] (HPLC reversed phase, method [c] pH 7.8), 2.94^[c];. Further, in the data set with Meloidogyne incognita, the “nematicidal activity (percentage of gall formation; 100% = no galls)” value worked out at 90%.

`O=C(NC1CCCC1c1ccccc1Cl)c1ccccc1C(F)(F)F` (stereo not shown) [Compound 296]: the logP in data set [1] (setting [5]) was 3.55^[b]. The “nematicidal activity (percentage of gall formation; 100% = no galls)” value in the data set with Meloidogyne incognita came out at 90%.

Turning to `O=C(NC1CCCC1c1ccccc1Cl)c1cccnc1C(F)(F)F` (stereo not shown) [Compound 297], in data set [1] (setting [5]), the logP was 3.05^[b]. Moreover, in the data set with Meloidogyne incognita, the “nematicidal activity (percentage of gall formation; 100% = no galls)” value was determined as 100%.

As for `O=C(NC1CCCC1c1c(F)cccc1F)c1ccccc1Cl` (stereo not shown) [Compound 311], the logP in data set [1] (setting [5]) was 3.24^[b]. Also, the “nematicidal activity (percentage of gall formation; 100% = no galls)” value in the data set on Meloidogyne incognita came to 90%.

As to `O=C(NC1CCCC1c1c(F)cccc1F)c1cccnc1C(F)(F)F` (stereo not shown) [Compound 313], the logP in data set [1] (setting [5]) is 2.87^[b]. In addition, the “nematicidal activity (percentage of gall formation; 100% = no galls)” value in the data set on Meloidogyne incognita worked out at 100%.

For `O=C(NC1CCCC1c1c(F)cccc1F)c1ccccc1I` (stereo not shown) [Compound 322], the logP in data set [1] (setting [5]) is 3.40^[b]. The “nematicidal activity (percentage of gall formation; 100% = no galls)” value in the data set with Meloidogyne incognita came out at 90%.

For `O=C(NC1CCCC1c1ccccc1Br)c1cccnc1C(F)(F)F` (stereo not shown) [Compound 346], the logP in data set [1] (setting [5]) is 3.13^[b]. Besides, the “nematicidal activity (percentage of gall formation; 100% = no galls)” value with Meloidogyne incognita is on record as 100%.

As to `O=C(NC1CCCC1c1ccccc1Br)c1cccnc1Cl` (stereo not shown) [Compound 348], the logP in data set [1] (setting [5]) was 2.80^[b]. For the same compound, the “nematicidal activity (percentage of gall formation; 100% = no galls)” value in the data set with Meloidogyne incognita came to 90%.

On to `O=C(NC1CCCC1c1ccccc1Br)c1ccccc1Cl` (stereo not shown) [Compound 349], for which, in data set [1] (setting [5]), the logP was 3.52^[b]. Besides, the “nematicidal activity (percentage of gall formation; 100% = no galls)” value in the data set with Meloidogyne incognita turned out to be 90%.

Turning to `O=C(NC1CCCC1c1ccc(Cl)cc1Cl)c1ccccc1I` (stereo not shown) [Compound 352], the logP in data set [1] (setting [5]) is 4.04^[b]. The “nematicidal activity (percentage of gall formation; 100% = no galls)” value in the data set on Meloidogyne incognita amounted to 100%.

For `O=C(NC1CCCC1c1ccc(Cl)cc1Cl)c1ccccc1C(F)(F)F` (stereo not shown) [Compound 353], in data set [1] (setting [5]), the logP is 4.04^[b]. The “nematicidal activity (percentage of gall formation; 100% = no galls)” value in the data set with Meloidogyne incognita was 100%.

`O=C(NC1CCCC1c1ccc(Cl)cc1Cl)c1cccnc1C(F)(F)F` (stereo not shown) [Compound 358]: the logP in data set [1] (setting [5]) is 3.54^[b]. Also, in the data set on Meloidogyne incognita, the “nematicidal activity (percentage of gall formation; 100% = no galls)” value came to 100%.

On to `O=C(NC1CCCCC1c1ccc(Cl)cc1Cl)c1cccnc1C(F)(F)F` (stereo not shown) [Compound 414], for which the logP in data set [1] (setting [5]) was 4.03^[b]. Also, the “nematicidal activity (percentage of gall formation; 100% = no galls)” value in the data set with Meloidogyne incognita came out at 100%.

Consider `O=C(NC1CC1c1ccc(Cl)cc1Cl)c1ccccc1C(F)(F)F` (stereo not shown) [Compound 424], for which, in data set [1] (setting [5]), the logP is 3.46^[b]. Further, in the data set on Meloidogyne incognita, the “nematicidal activity (percentage of gall formation; 100% = no galls)” value amounted to 100%.

In the case of `O=C(NC1CC1c1ccc(Cl)cc1Cl)c1cccnc1Cl` (stereo not shown) [Compound 425], in data set [1] (setting [5]), the logP is 2.62^[b]. Moreover, the “nematicidal activity (percentage of gall formation; 100% = no galls)” value in the data set with Meloidogyne incognita is listed as 100%.

On to `O=C(NC1CCC1c1ccccc1C(F)(F)F)c1ccccc1` (stereo not shown) [Compound 426], for which the logP in data set [1] (setting [5]) was 3.08^[b]. Also, the “nematicidal activity (percentage of gall formation; 100% = no galls)” value in the data set on Meloidogyne incognita was found to be 100%.

Regarding `O=C(NC1CCC1c1ccccc1C(F)(F)F)c1ccccc1I` (stereo not shown) [Compound 427], in data set [1] (setting [5]), the logP was 3.44^[b]. The “nematicidal activity (percentage of gall formation; 100% = no galls)” value in the data set on Meloidogyne incognita turned out to be 100%.

As for `O=C(NC1CCC1c1ccccc1C(F)(F)F)c1c(F)cccc1F` (stereo not shown) [Compound 430], in data set [1] (setting [5]), the logP was 3.09^[b]. In the data set with Meloidogyne incognita, the “nematicidal activity (percentage of gall formation; 100% = no galls)” value is 100%.

Regarding `O=C(NC1CCC1c1ccccc1C(F)(F)F)c1ccccc1Cl` (stereo not shown) [Compound 432], the logP in data set [1] (setting [5]) was 3.30^[b]. The “nematicidal activity (percentage of gall formation; 100% = no galls)” value in the data set on Meloidogyne incognita came out at 100%.

With `O=C(NC1CCC1c1ccccc1C(F)(F)F)c1ccccc1C(F)(F)F` (stereo not shown) [Compound 434], the logP in data set [1] (setting [5]) was 3.44^[b]. Further, the “nematicidal activity (percentage of gall formation; 100% = no galls)” value in the data set with Meloidogyne incognita came out at 90%.
